Data on 1 molecule can be found in patent publication US9145401B2, “Amide derivative and use of the same as stability index of a luliconazole pharmaceutical formulation” (POLA PHARMA INC., priority 2012, dated 2015).

The subject of the assay is fungi. Briefly: Antifungal activity of the amide form.

As to `NC(=O)/C(=C1/SCC(c2ccc(Cl)cc2Cl)S1)n1ccnc1` (single isomer, unassigned) [amide form, [R-(E)]-α-[4-(2,4-dichlorophenyl)-1,3-dithiolan-2-ylidene]-1H-imidazole-1-acetamide], the antifungal activity entry was “low”.
